Data: US10647679B2, “N-methyl-D-aspartate receptor (NMDAR) potentiators, pharmaceutical compositions, and uses related thereto” (Emory University, priority 2015, dated 2020)
Like-named read-outs stand apart in the source and are kept apart here.

How the values were obtained:
Type in all cases: cell-based
[1] = biological target: T1, recombinant rat GluN1/GluN2B (Rattus norvegicus, UniProt Q00960); experiment: Two-electrode voltage-clamp (TEVC) recordings in Xenopus laevis oocytes, GluN1/GluN2B; details: for I30 μM/Icontrol (mean ± SEM, %) GluN2B: 30 μM compound, Tables 5-7; for EC50: fitted when potentiation at 30 μM exceeded 120%, Tables 3, 5-7, read-out: EC50 (max.) (μM %) GluN2B: fitted EC50; for GluN2B EC50 (μM)/Max %: Max %: maximum potentiation, response without modulator = 100%; for EC50 (max.) (μM %) GluN2B: fitted maximum response: percentage of the initial glutamate (100 μM) and glycine (30 μM) current
T1 construct: expressed in transfected cells; host or cells: Xenopus laevis oocytes (Ecocyte) injected with in vitro transcribed cRNA
Experimental: (§1) Data are from between 3-26 oocytes from 2-5 frogs for each compound and receptor tested.
(§2) Two-electrode voltage-clamp recordings were performed in Xenopus laevis oocytes (Ecocyte) expressing recombinant rat GluN1/GluN2A, GluN1/GluN2B, GluN1/GluN2C, GluN1/GluN2D. cRNA was transcribed in vitro (Ambion), diluted with nuclease free water, and injected at a ratio of 1:2 GluN1:GluN2 (5-10 ng total cRNA). The oocytes were kept in Barth's solution comprised of (in mM) 88 NaCl, 5 Tris-HCl, 2.4 NaHCO3, 1 KCl, 0.84 MgSO4, 0.41 CaCl2, and 0.33 Ca(NO3)2 at pH 7.4 at 15-17° C. for two to five days before experiments. Oocytes were placed into a perfusion chamber and continually washed with recording solution containing (in mM) 90 NaCl, 1.0 KCl, 0.5 BaCl2, 0.005 EDTA, and 10 HEPES at pH 7.4 (23° C.). Voltage clamp recordings were conducted at a holding potential of −40 mV. All compounds were made as 20 mM stock solutions in DMSO and dissolved to reach the final concentration in recording solution. Final DMSO content was 0.05-0.5% (vol/vol). Some oocytes expressing GluN1/GluN2A were pretreated with […] BAPTA-AM for 10 minutes or injected with […] of 2 mM K-BAPTA to prevent gradual run-up of the current response.

[2] = biological target: T2, recombinant rat GluN1/GluN2C (Rattus norvegicus, UniProt Q00961); experiment: Two-electrode voltage-clamp (TEVC) recordings in Xenopus laevis oocytes, GluN1/GluN2C; details: for I30 μM/Icontrol (mean ± SEM, %) GluN2C: 30 μM compound, Tables 5-7; for GluN2C EC50 (μM)/Max %: Max %: maximum potentiation, response without modulator = 100%; for EC50 (max.) (μM %) GluN2C: fitted maximum response: percentage of the initial glutamate (100 μM) and glycine (30 μM) current
T2 construct: expressed in transfected cells; host or cells: Xenopus laevis oocytes (Ecocyte) injected with in vitro transcribed cRNA
Experimental: as §1, §2

[3] = biological target: T3, recombinant rat GluN1/GluN2D (Rattus norvegicus, UniProt Q62645); experiment: Two-electrode voltage-clamp (TEVC) recordings in Xenopus laevis oocytes, GluN1/GluN2D; details: for GluN2D EC50 (μM)/Max %: Max %: maximum potentiation, response without modulator = 100%; for EC50 (max.) (μM %) GluN2D: fitted maximum response: percentage of the initial glutamate (100 μM) and glycine (30 μM) current
T3 construct: expressed in transfected cells; host or cells: Xenopus laevis oocytes (Ecocyte) injected with in vitro transcribed cRNA
Experimental: as §1, §2

[4] = biological target: T4, recombinant rat GluN1/GluN2B (Rattus norvegicus, UniProt P35439+Q00960); experiment: Two-electrode voltage-clamp (TEVC) recordings in Xenopus laevis oocytes, GluN1/GluN2B; details: for EC50: fitted when potentiation at 30 μM exceeded 120%, Tables 3, 5-7, read-out: EC50 (max.) (μM %) GluN2B: fitted EC50
T4 construct: expressed in transfected cells; host or cells: Xenopus laevis oocytes (Ecocyte) injected with in vitro transcribed cRNA
Experimental: as §1, §2

[5] = biological target: T5, recombinant rat GluN1/GluN2C (Rattus norvegicus, UniProt P35439+Q00961); experiment: Two-electrode voltage-clamp (TEVC) recordings in Xenopus laevis oocytes, GluN1/GluN2C; details: for Emax: maximum potentiation, response without modulator = 100%, read-out: GluN2C EC50 (μM)/Max %: Max %
T5 construct: expressed in transfected cells; host or cells: Xenopus laevis oocytes (Ecocyte) injected with in vitro transcribed cRNA
Experimental: as §1, §2

[6] = fitted when potentiation at 30 μM exceeded 120%, Tables 3, 5-7, read-out: EC50 (max.) (μM %) GluN2C: fitted EC50
[7] = fitted when potentiation at 30 μM exceeded 120%, Tables 3, 5-7, read-out: EC50 (max.) (μM %) GluN2D: fitted EC50
[8] = maximum potentiation, response without modulator = 100%, read-out: GluN2B EC50 (μM)/Max %: Max %
[9] = percentage of the initial glutamate (100 μM) and glycine (30 μM) current, read-out: EC50 (max.) (μM %) GluN2B: fitted maximum response

T1 sequence (Q00960 27-1482, other chains not shown): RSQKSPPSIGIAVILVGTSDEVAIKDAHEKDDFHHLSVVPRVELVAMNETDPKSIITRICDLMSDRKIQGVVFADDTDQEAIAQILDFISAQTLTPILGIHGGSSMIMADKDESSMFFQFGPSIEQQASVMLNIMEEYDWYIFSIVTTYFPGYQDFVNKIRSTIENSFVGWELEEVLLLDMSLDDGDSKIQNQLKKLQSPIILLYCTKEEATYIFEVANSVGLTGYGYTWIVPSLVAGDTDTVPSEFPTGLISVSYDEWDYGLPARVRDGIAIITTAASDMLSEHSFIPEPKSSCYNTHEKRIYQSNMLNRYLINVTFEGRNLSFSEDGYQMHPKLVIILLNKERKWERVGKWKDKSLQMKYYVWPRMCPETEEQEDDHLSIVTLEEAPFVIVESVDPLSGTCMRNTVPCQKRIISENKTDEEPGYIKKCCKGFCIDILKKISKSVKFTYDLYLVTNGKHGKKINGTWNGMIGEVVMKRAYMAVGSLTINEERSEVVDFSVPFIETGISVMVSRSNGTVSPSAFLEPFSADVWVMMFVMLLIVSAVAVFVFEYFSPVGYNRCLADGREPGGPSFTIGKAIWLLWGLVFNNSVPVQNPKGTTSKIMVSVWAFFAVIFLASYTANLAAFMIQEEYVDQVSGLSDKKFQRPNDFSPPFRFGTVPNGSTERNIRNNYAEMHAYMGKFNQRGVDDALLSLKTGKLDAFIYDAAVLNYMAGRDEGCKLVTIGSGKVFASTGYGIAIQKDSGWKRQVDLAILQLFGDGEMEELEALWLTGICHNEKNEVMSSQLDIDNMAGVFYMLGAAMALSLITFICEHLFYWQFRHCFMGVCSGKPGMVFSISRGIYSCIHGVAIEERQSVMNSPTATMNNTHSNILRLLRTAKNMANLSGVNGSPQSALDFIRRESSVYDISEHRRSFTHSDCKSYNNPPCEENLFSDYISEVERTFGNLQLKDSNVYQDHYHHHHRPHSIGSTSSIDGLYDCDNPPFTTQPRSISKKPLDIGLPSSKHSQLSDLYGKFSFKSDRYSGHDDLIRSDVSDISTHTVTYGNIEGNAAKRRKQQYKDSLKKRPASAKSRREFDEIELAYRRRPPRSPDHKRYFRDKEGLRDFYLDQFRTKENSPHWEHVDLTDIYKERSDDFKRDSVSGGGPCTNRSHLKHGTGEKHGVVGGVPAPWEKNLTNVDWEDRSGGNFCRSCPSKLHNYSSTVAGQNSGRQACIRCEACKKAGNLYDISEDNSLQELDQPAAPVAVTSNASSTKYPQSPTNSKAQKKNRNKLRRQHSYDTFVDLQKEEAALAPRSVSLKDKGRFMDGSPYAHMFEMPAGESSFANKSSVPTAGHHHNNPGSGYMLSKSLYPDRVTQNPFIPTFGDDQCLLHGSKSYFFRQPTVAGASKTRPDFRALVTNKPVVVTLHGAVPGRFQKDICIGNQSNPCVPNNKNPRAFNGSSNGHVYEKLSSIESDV
T4 sequence (Q00960 27-1482, other chains not shown): as above
T3 sequence (Q62645 28-1323, other chains not shown): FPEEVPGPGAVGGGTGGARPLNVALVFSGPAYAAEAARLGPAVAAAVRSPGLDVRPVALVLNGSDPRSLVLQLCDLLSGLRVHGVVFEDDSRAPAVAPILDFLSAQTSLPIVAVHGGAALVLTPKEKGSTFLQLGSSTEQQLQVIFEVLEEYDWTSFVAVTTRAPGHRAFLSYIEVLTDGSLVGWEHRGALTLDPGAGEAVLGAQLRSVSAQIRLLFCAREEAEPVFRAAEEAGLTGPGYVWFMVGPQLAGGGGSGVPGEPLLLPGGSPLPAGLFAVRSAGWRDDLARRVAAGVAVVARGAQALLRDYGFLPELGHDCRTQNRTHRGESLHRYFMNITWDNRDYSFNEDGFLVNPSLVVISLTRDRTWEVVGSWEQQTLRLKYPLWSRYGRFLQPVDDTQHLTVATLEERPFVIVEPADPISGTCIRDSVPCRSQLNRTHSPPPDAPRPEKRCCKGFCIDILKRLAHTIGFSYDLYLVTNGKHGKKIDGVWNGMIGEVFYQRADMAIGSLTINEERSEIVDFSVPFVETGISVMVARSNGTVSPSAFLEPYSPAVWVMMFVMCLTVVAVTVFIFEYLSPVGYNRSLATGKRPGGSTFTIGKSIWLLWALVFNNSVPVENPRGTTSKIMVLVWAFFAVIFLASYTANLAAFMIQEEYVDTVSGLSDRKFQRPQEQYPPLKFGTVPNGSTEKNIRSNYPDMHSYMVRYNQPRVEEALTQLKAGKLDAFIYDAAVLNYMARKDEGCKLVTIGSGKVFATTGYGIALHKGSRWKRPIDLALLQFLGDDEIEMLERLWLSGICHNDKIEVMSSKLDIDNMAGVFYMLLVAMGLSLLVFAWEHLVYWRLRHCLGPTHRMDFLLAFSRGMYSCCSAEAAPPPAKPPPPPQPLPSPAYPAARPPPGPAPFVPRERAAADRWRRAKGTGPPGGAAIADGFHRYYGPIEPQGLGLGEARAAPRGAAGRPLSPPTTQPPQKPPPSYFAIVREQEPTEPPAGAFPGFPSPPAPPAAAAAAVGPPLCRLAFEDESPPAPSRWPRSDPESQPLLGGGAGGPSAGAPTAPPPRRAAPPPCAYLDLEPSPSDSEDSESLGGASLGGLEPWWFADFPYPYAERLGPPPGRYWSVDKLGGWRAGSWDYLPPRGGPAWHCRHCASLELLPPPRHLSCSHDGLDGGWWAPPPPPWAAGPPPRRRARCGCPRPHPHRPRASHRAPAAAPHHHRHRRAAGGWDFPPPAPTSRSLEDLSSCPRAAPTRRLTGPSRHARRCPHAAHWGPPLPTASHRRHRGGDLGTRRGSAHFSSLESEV

SMILES: CCOc1ccc(OCC2c3ccc(OC(C)C)cc3CCN2C(=S)c2cccc(F)c2)cc1 (racemic) [1180-154]
- I30 μM/Icontrol (mean ± SEM, %) GluN2B [1]: 184%
- EC50 [1]: 0.7 µM
- GluN2B EC50 (μM)/Max %: Max % [1]: 200%
- EC50 (max.) (μM %) GluN2B: fitted maximum response [1]: (190%)
- I30 μM/Icontrol (mean ± SEM, %) GluN2C [2]: 166%
- EC50 [2, 6]: 1.4 µM
- GluN2C EC50 (μM)/Max %: Max % [2]: 191%
- EC50 (max.) (μM %) GluN2C: fitted maximum response [2]: (145%)
- I30 μM/Icontrol (mean ± SEM, %) GluN2D ([3]; 30 μM compound, Tables 5-7): 154%
- EC50 [3, 7]: 1.2 µM
- GluN2D EC50 (μM)/Max %: Max % [3]: 159%
- EC50 (max.) (μM %) GluN2D: fitted maximum response [3]: (153%)

SMILES: COc1ccc(OCC2c3cc(OC)c(OC)cc3CCN2C(=S)c2cccc(Br)c2)cc1 (racemic) [1180-157]
- EC50 & Max Effect: 2C (μM) [2]: Inactive
- EC50 & Max Effect: 2D (μM) [3]: Inactive

SMILES: COc1ccc(OCC2c3cc(OC)c(OC)cc3CCN2C(=S)c2cccc(Cl)c2)cc1 (racemic) [1180-161]
- EC50 & Max Effect: 2C (μM) [2]: Inactive
- EC50 & Max Effect: 2D (μM) [3]: Inactive

SMILES: CCOc1ccc(OCC2c3ccc(OC4CCCC4)cc3CCN2C(=S)c2cccc(F)c2)cc1 (racemic) [1180-162]
- EC50 & Max Effect: 2C Max (%) [2]: 218%
- EC50 ([2]; read-out: EC50 & Max Effect: 2C): 0.26 µM
- EC50 & Max Effect: 2D Max (%) [3]: 295%
- EC50 ([3]; read-out: EC50 & Max Effect: 2D): 0.39 µM

SMILES: COc1ccc(OCC2c3ccc(OC(C)C)cc3CCN2C(=S)c2cccc(Cl)c2)cc1 (racemic) [1180-163]
- I10 μM/Icontrol (mean ± SEM, %) GluN2B ([1]; 10 μM compound, Table 3): 212%
- EC50 [1]: 0.11 µM
- GluN2B EC50 (μM)/Max %: Max % [1]: 262%
- EC50 (max.) (μM %) GluN2B: fitted maximum response [1]: (228%)
- I10 μM/Icontrol (mean ± SEM, %) GluN2C ([2]; 10 μM compound, Table 3): 272%
- EC50 & Max Effect: 2C Max (%) ([2]; Tables 11-13): 247%
- EC50 ([2]; Tables 11-13, read-out: EC50 & Max Effect: 2C): 0.43 µM
- EC50 [2, 6]: 0.32 µM
- GluN2C EC50 (μM)/Max %: Max % [2]: 247%
- EC50 (max.) (μM %) GluN2C: fitted maximum response [2]: (273%)
- I10 μM/Icontrol (mean ± SEM, %) GluN2D ([3]; 10 μM compound, Table 3): 231%
- EC50 & Max Effect: 2D Max (%) ([3]; Tables 11-13): 249%
- EC50 ([3]; Tables 11-13, read-out: EC50 & Max Effect: 2D): 0.43 µM
- EC50 [3, 7]: 0.14 µM
- GluN2D EC50 (μM)/Max %: Max % [3]: 249%
- EC50 (max.) (μM %) GluN2D: fitted maximum response [3]: (260%)

SMILES: CCOc1ccc(OCC2c3ccc(OC(C)C)cc3CCN2C(=O)c2cccc(Cl)c2)cc1 (centres unmarked) [1180-83]
- Emax [4, 8]: 141%
- Emax [5]: 125%

SMILES: CCOc1ccc(OCC2c3ccc(OC(C)C)cc3CCN2C(=O)c2cccc(Br)c2)cc1 (centres unmarked) [1180-86]
- Emax [4, 8]: 138%
- Emax [5]: 132%

SMILES: CCOc1ccc(OCC2c3ccc(OC(C)C)cc3CCN2C(=O)c2cccc(F)c2)cc1 (centres unmarked) [1180-87]
- I30 μM/Icontrol (mean ± SEM, %) GluN2B [1]: 151%
- EC50 [4]: 2.8 µM
- Emax [4, 8]: 152%
- Emax [4, 9]: 152%
- I30 μM/Icontrol (mean ± SEM, %) GluN2C [2]: 103%

SMILES: CCOc1ccc(OCC2c3ccc(OC(C)C)cc3CCN2C(=O)c2cccc(C(F)(F)F)c2)cc1 (centres unmarked) [1180-92]
- EC50 [4]: 2.5 µM
- Emax [4, 9]: 122%

SMILES: CCOc1ccc(OCC2c3ccc(OC(C)C)cc3CCN2C(=S)c2ccc(Cl)c(Cl)c2)cc1 (centres unmarked) [1180-155]
- Emax [4, 8]: 157%
- Emax [5]: 169%

SMILES: CCOc1ccc(OCC2c3ccc(OC(C)C)cc3CCN2S(=O)(=O)c2cccc(Cl)c2)cc1 (centres unmarked) [1180-199]
- GluN2C response % at 10 μM ([2]; at 10 μM, Table 9): 142% at 10 μM

SMILES: CC=CCC(=O)N1CCc2cc(OC)ccc2C1COc1ccc(OC)cc1 (centres unmarked) [1180-235]
- GluN2B response % at 30 µM [1]: 103% at 30
- GluN2C response % at 30 µM [2]: 184% at 30
- GluN2D response % at 30 µM [3]: 222% at 30

SMILES: CCOCC(=O)N1CCc2cc(OC)ccc2C1COc1ccc(OC)cc1 (centres unmarked) [1180-240]
- GluN2B response % at 30 µM [1]: 100% at 30
- GluN2C response % at 30 µM [2]: 115% at 30
- GluN2D response % at 30 µM [3]: 114% at 30

SMILES: COc1ccc(OCC2c3ccc(OC)cc3CCN2C(=O)c2cnc(Cl)s2)cc1 (centres unmarked) [1180-241]
- GluN2B response % at 30 µM [1]: 88% at 30
- GluN2C response % at 30 µM [2]: 114% at 30
- GluN2D response % at 30 µM [3]: 131% at 30

SMILES: COc1ccc(OCC2c3ccc(OC)cc3CCN2C(=O)c2coc(Cl)n2)cc1 (centres unmarked) [1180-247]
- GluN2B response % at 30 µM [1]: 99% at 30
- EC50 ([5]; untitled tables after drawing 25 and drawing 36, read-out: EC50 (μM) GluN2C): 65 µM
- GluN2D response % at 100 μM ([3]; at 100 μM): 223% at 100
